# Legend:
# [1] = test system: ADP-induced human platelet aggregation; assay: PRP assay: inhibition of ADP-mediated platelet aggregation in vitro; type: cell-based; details: IC50 class
# Method: I. Inhibition of ADP-Mediated Platelet Aggregation in vitro
# The effect of testing the compound according to the invention on ADP-induced human platelet aggregation is preferably assessed in 96-well microtiter assay (see generally the procedures in Jantzen, H. M. et al. (1999) Thromb. Hemost. 81:111–117). Human venous blood is collected from healthy, drug-free volunteers into ACD (85 mM sodium citrate, 111 mM glucose, 71.4 mM citric acid) containing PGI2 (1.25 ml ACD containing 1.6 μM PGI2/10 ml blood; PGI2 was from Sigma, St. Louis, Mo.). Platelet-rich plasma (PRP) is prepared by centrifugation at 160×g for 20 minutes at room temperature. Washed platelets are prepared by centrifuging PRP for 10 minutes at 730×g and resuspending the platelet pellet in CGS (13 mM sodium citrate, 30 mM glucose, 120 mM NaCl; 2 ml CGS/10 ml original blood volume) containing 1 U/ml apyrase (grade V, Sigma, St. Louis, Mo.). After incubation at 37° C. for 15 minutes, the platelets are collected by centrifugation at 730×g for 10 minutes and resuspended at a concentration of 3×10^8 platelets/ml in Hepes-Tyrode's buffer (10 mM Hepes, 138 mM NaCl, 5.5 mM glucose, 2.9 mM KCl, 12 mM NaHCO3, pH 7.4) containing 0.1% bovine serum albumin, 1 mM CaCl2 and 1 mM MgCl2. This platelet suspension is kept >45 minutes at 37° C. before use in aggregation assays.
# Inhibition of ADP-dependent aggregation is preferably determined in 96-well flat-bottom microtiter plates using a microtiter plate shaker and plate reader similar to the procedure described by Frantantoni et al., Am. J. Clin. Pathol. 94, 613 (1990). All steps are performed at room temperature. The total reaction volume of 0.2 ml/well includes in Hepes-Tyrodes buffer/0.1% BSA: 4.5×10^7 apyrase-washed platelets, 0.5 mg/ml human fibrinogen (American Diagnostica, Inc., Greenwich, Conn.), serial dilutions of test compounds (buffer for control wells) in 0.6% DMSO. After about 5 minutes preincubation at room temperature, ADP is added to a final concentration of 2 μM which induces submaximal aggregation. Buffer is added instead of ADP to one set of control wells (ADP^− control). The OD of the samples is then determined at 490 nm using a microtiter plate reader (Softmax, Molecular Devices, Menlo Park, Calif.) resulting in the 0 minute reading. The plates are then agitated for 5 min on a microtiter plate shaker and the 5 minute reading is obtained in the plate reader. Aggregation is calculated from the decrease of OD at 490 nm at t=5 minutes compared to t=0 minutes and is expressed as % of the decrease in the ADP control samples after correcting for changes in the unaggregated control samples.
# platelet ADP receptors = molecular target: T1, platelet ADP receptors (Homo sapiens, UniProt Q9H244); assay: ARB assay: inhibition of [3H]2-MeS-ADP binding to platelets; details: IC50 class, [3H]2-MeS-ADP binding to whole human platelets
# T1 construct: endogenous in cells; host or cells: whole apyrase-washed human platelets (outdated from blood banks, or fresh)
# Method: II. Inhibition of [^3H]2-MeS-ADP Binding to Platelets
# Utilizing the second assay the potency of inhibition of such compounds with respect to [^3H]2-MeS-ADP binding to whole platelets is determined. [^3H]2-MeS-ADP binding experiments are routinely performed with outdated human platelets collected by standard procedures at hospital blood banks. Apyrase-washed outdated platelets are prepared as follows (all steps at room temperature, if not indicated otherwise):
# Outdated platelet suspensions are diluted with 1 volume of CGS and platelets pelleted by centrifugation at 1900×g for 45 minutes. Platelet pellets are resuspended at 3-6×10^9 platelets/ml in CGS containing 1 U/ml apyrase (grade V, Sigma, St. Louis, Mo.) and incubated for 15 minutes at 37° C. After centrifugation at 730×g for 20 minutes, pellets are resuspended in Hepes-Tyrode's buffer containing 0.1% BSA (Sigma, St. Louis, Mo.) at a concentration of 6.66×10^8 platelets/ml. Binding experiments are performed after >45 minutes resting of the platelets.
# Alternatively, binding experiments are performed with fresh human platelets prepared as described in I. (Inhibition of ADP-Mediated Platelet Aggregation in vitro), except that platelets are resuspended in Hepes-Tyrode's buffer containing 0.1% BSA (Sigma, St. Louis, Mo.) at a concentration of 6.66×10^8 platelets/ml. Very similar results are obtained with fresh and outdated platelets.
# A platelet ADP receptor binding assay using the tritiated potent agonist ligand [^3H]2-MeS-ADP (Jantzen, H. M. et al. (1999) Thromb. Hemost. 81:111–117) has been adapted to the 96-well microtiter format. In an assay volume of 0.2 ml Hepes-Tyrode's buffer with 0.1% BSA and 0.6% DMSO, 1×10^8 apyrase-washed platelets are preincubated in 96-well flat bottom microtiter plates for 5 minutes with serial dilutions of test compounds before addition of 1 nM [^3H]2-MeS-ADP ([^3H]2-methylthioadenosine-5′-diphosphate, ammonium salt; specific activity 48–49 Ci/mmole, obtained by custom synthesis from Amersham Life Science, Inc., Arlington Heights, Ill., or NEN Life Science Products, Boston, Mass.). Total binding is determined in the absence of test compounds. Samples for nonspecific binding may contain 10^−5 M unlabelled 2-MeS-ADP (RBI, Natick, Mass.). After incubation for 15 minutes at room temperature, unbound radioligand is separated by rapid filtration and two washes with cold (4–8° C.) Binding Wash Buffer (10 mM Hepes pH 7.4, 138 mM NaCl) using a 96-well cell harvester (Minidisc 96, Skatron Instruments, Sterling, Va.) and 8×12 GF/C glassfiber filtermats (Printed Filtermat A, for 1450 Microbeta, Wallac Inc., Gaithersburg, Md.). The platelet-bound radioactivity on the filtermats is determined in a scintillation counter (Microbeta 1450, Wallac Inc., Gaithersburg, Md.). Specific binding is determined by […] binding, and specific binding in the presence of test compounds is expressed as % of specific binding in the absence of test compounds dilutions.
# T1 sequence (Q9H244 whole entry): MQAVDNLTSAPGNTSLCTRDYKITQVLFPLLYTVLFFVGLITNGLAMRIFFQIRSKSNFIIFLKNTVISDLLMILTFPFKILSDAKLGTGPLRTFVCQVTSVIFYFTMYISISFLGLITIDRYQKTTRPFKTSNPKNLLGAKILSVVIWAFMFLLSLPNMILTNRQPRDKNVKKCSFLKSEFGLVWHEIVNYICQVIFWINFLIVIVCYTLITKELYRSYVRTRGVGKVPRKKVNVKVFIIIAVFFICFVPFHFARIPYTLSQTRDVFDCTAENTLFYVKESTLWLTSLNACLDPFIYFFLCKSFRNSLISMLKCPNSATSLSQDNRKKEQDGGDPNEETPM
compound,measurement,setting,value
"CNc1cc2c(cc1F)C(=O)N(c1ccc(C(=O)NS(=O)(=O)c3ccc(Cl)s3)c(F)c1)CO2 [Example 57, N-(5-chlorothiophen-2-ylsulfonyl)-2-fluoro-4-(6-fluoro-7-(methylamino)-4-oxo-2H-benzo[e][1,3]oxazin-3(4H)-yl) benzamide]",IC50,[1],> 30 µM
same,IC50,platelet ADP receptors,< 0.05 µM

# From US7205296B2, “Substituted 2H-1,3-benzoxazin-4(3H)-ones” (Portola Pharmaceuticals, Inc., priority 2004, dated 2007)
